Assay: Dissolution times of calcium and magnesium in water at pH 7
Type: physicochemical
Settings: water pH 7
Method: The dissolution times for calcium and magnesium were measured by dissolving each in a solution of water having a pH of 7. 331 mg of calcium was placed in a beaker containing the solution an allowed to dissolve. 165 mg of magnesium was then placed in a second beaker and dissolved. The results are listed below in Table 1 and shown graphically in FIG. 1.

| Compound | Dissolution, percent (%) (dissolution time 0 min) | Dissolution, percent (%) (dissolution time 15 min) | Dissolution, percent (%) (dissolution time 30 min) | Dissolution, percent (%) (dissolution time 45 min) | Dissolution, percent (%) (dissolution time 60 min) | Dissolution, percent (%) (dissolution time 75 min) | Dissolution, percent (%) (dissolution time 90 min) | Dissolution, percent (%) (dissolution time 105 min) | Dissolution, percent (%) (dissolution time 120 min) | Dissolution, percent (%) (dissolution time 150 min) | Dissolution, percent (%) (dissolution time 180 min) | Dissolution, percent (%) (dissolution time 210 min) | Dissolution, percent (%) (dissolution time 240 min) | Dissolution, percent (%) (dissolution time 270 min) | Dissolution, percent (%) (dissolution time 300 min) | Dissolution, percent (%) (dissolution time 330 min) | Dissolution, percent (%) (dissolution time 360 min) |
| --- | --- | --- | --- | --- | --- | --- | --- | --- | --- | --- | --- | --- | --- | --- | --- | --- | --- |
| [Ca+2] [CALCIUM, calcium] | 0 | 99.7 | 98.79 | 98.19 | 99.09 | 96.79 | 97.89 | 100 | 99.09 | – | – | – | – | – | – | – | – |
| [Mg+2] [MAGNESIUM, magnesium] | 0 | – | 4.93 | – | 10.61 | – | 16.48 | – | 21.76 | 26.61 | 31.82 | 36.67 | 41.82 | 46.79 | 50.67 | 55.21 | 58.91 |

From US6887492B2, “Magnesium plus interactive agent delivery” (Leiner Health Services Corp., priority 2000, dated 2005)
